In US10525021B2, “Mitochondrial uncouplers for treatment of metabolic diseases and cancer” (RUTGERS, THE STATE UNIVERSITY OF NEW JERSEY, priority 2014, dated 2020):
pEC50, pIC50: −log10 of the molar value. Where two headings read alike, the source gives them in different places.

Key:
Type in all cases: cell-based
[1] = system: NIH-3T3 cells, or HepG2 cells; assay: Mitochondrial uncoupling activity assay (loss of mitochondrial TMRE staining in live cells); settings: 2 h, read-out: Activities (mitochondrial uncoupling activity, EC50)
Description: Mitochondrial uncoupling analyses in live cells were performed with cultured mammalian cells, the NIH-3T3 cells, or HepG2 cells. Cells were seeded onto 6-well plate and cultured in DMEM medium supplemented with 10% fetal bovine serum and 2 mM glutamine. Cells were allowed to grow to logarithmic growth phase prior to experiments. The cells were treated with each individual synthesized compound at various concentrations for two hours, followed by staining with TMRE (tetramethylrhodamine ethyl ester) at final concentration of 100 nM for 15 minutes. The cells were then washed once with PBS, and examined under fluorescence microscopy. A positive control of cells treated with various concentrations of niclosamide ethanolamine were used as positive control. Percentage of cells losing mitochondrial TMRE staining was used as a quantification of mitochondrial uncoupling activity.

[2] = system: AMPK; assay: AMPK activation analysis by immunoblotting with antibody against phosphorylated AMPK; settings: two-hour treatment, phospho-AMPKα (Thr172) immunoblot
Description: AMPK activation analysis by immunoblotting assay with antibody against phosphorylated AMPK: mouse pancreatic cancer cell line, Panc02, or NIH-3T3 fibroblasts, or human liver carcinoma cell line HepG2, were cultured in Dulbecco's modified Eagle's medium (DMEM) supplemented with 10% (vol/vol) fetal bovine serum, 100 unit·ml^−1 of penicillin, 100 μg·ml^−1 of streptomycin and 0.29 mg·ml^−1 of L-glutamine at 37° C. and 5% CO2. For treatment, individual compound was first dissolved in DMSO to make stock solution, and then was added directly to the culturing medium to desired concentration by at least 1:1000 dilution. After a two-hour treatment, cells were collected and homogenized within lysis buffer containing 10 mM TRIS-HCl (pH 7.9), 10% glycerol, 0.1 mM EDTA, 100 mM KCl, 0.2% NP-40, 0.5 mM PMSF, 1 mM DTT, mini-complete protease inhibitor cocktail (Roche, 11836153001), and phosphatase inhibitor cocktail (Roche, 04906845001) if required. Nuclei and insoluble debris were pelleted in an Eppendorf micro-centrifuge at 10,000 rpm for 5 min at 4° C. Cell extracts were then stored at −20° C. or immediately subjected to sodium dodecyl sulfate-polyacrylamide gel electrophoresis (SDS-PAGE). […] Quantification was determined by measuring band intensity using ImageJ software and calculating the ratio of protein of interesting to internal loading control. […]

[3] = system: mouse colon cancer cell line MC38; assay: Clonogenic assay for cell proliferation inhibition (colony formation); settings: MC-38, MC38 cells, treated 24-48 hrs, colonies counted after 2 weeks, read-out: IC50 concentrations (inhibition of colony formation)
Description: Clonogenic assay for determining activity of cell proliferation inhibition: mouse colon cancer cell line MC38 was seeded onto 6-well plates at the density of about 200 cells per well, grown under medium conditions as described above, after attachment, cells were treated with ascending concentrations of example compounds for 24-48 hrs. The drug-containing medium was then removed and fresh medium without drug was added to each well. Cells were then grown for 2 weeks for colony formation. During the two weeks, old medium was aspirated out and fresh drug-free medium was added to the wells every two days. At the end of the experiment, the colonies were counted for the treatment at each concentration. IC50 is defined as the concentration that inhibits 50% of colony formation as compared to the no drug treatment control.

[4] = two-hour treatment, TMRE 100 nM staining, concentration at which mitochondrial TMRE fluorescence is reduced to about 50%

Row | Compound | pEC50 [1] | pEC50 [1, 4] | further results
1 | O=C(Nc1cnccn1)c1cc(Cl)ccc1O [Compound 1, 5-Chloro-2-hydroxy-N-(pyrazin-2-yl)benzamide] | > 5.00 |  | 
2 | N#Cc1cnc(NC(=O)c2cc(Cl)ccc2O)s1 [Compound 16, 5-chloro-N-(5-cyanothiazol-2-yl)-2-hydroxybenzamide] |  | > 5.00 | 
3 | N#Cc1cnc(NC(=O)c2cc(Cl)ccc2O)cn1 [Compound 3, 5-Chloro-N-(5-cyanopyrazin-2-yl)-2-hydroxybenzamide] | > 5.00 |  | 
4 | CCOP(=O)(O)Oc1ccc(Cl)cc1C(=O)Nc1ccc(C#N)cc1Cl [Compound 12, 4-Chloro-2-((2-chloro-4-cyanophenyl)carbamoyl)phenyl ethyl hydrogen phosphate] | < 4.30 |  | 
5 | O=C(Nc1cnc(Cl)nc1Cl)c1cc(Cl)ccc1O [Compound 6, 5-Chloro-N-(2,4-dichloropyrimidin-5-yl)-2-hydroxybenzamide] |  | < 4.30 | 
6 | O=C(Nc1ccc2nccnc2c1)c1cc(Cl)ccc1O [Compound 22, 5-Chloro-2-hydroxy-N-(quinoxalin-6-yl)benzamide] |  | 4.30 to 5.00 | 
7 | O=C(Nc1ccc2scnc2c1)c1cc(Cl)ccc1O [Compound 15, N-(Benzo[d]thiazol-5-yl)-5-chloro-2-hydroxybenzamide] |  | > 5.00 | 
8 | N#Cc1ncc(NC(=O)c2cc(Cl)ccc2O)cn1 [Compound 8, 5-Chloro-N-(2-cyanopyrimidin-5-yl)-2-hydroxybenzamide] |  | 4.30 to 5.00 | 
9 | O=C(Nc1cncnc1)c1cc(Cl)ccc1O [Compound 5, 5-Chloro-2-hydroxy-N-(pyrimidin-5-yl)benzamide] | < 4.30 |  | 
10 | N#Cc1ccc(NC(=O)c2cc(Cl)ccc2O)nc1 [Compound 11, 5-Chloro-N-(5-cyanopyridin-2-yl)-2-hydroxybenzamide] | 4.30 to 5.00 |  | 
11 | O=C(Nc1cnc(Br)cn1)c1cc(Cl)ccc1O [Compound 2, N-(5-Bromopyrazin-2-yl)-5-chloro-2-hydroxybenzamide] |  | > 5.00 | Concentrations for AMPK activation [2]: *** (<=10 μM)
12 | O=C(Nc1cccnn1)c1cc(Cl)ccc1O [Compound 9, 5-Chloro-2-hydroxy-N-(pyridazin-3-yl)benzamide] | < 4.30 |  | 
13 | O=C(Nc1cnc(Cl)nc1)c1cc(Cl)ccc1O [Compound 7, 5-Chloro-N-(2-chloropyrimidin-5-yl)-2-hydroxybenzamide] |  | > 5.00 | 
14 | O=C(Nc1ccc(Cl)nn1)c1cc(Cl)ccc1O [Compound 10, 5-Chloro-N-(6-chloropyridazin-3-yl)-2-hydroxybenzamide] | 4.30 to 5.00 |  | 
15 | O=C(Nc1nc2c(F)cccc2s1)c1cc(Cl)ccc1O [Compound 18, 5-Chloro-N-(4-fluorobenzo[d]thiazol-2-yl)-2-hydroxybenzamide] | > 5.00 |  | 
16 | N#Cc1cnc(NC(=O)c2cc(Cl)ccc2O)c(Cl)n1 [Compound 4, 5-Chloro-N-(3-chloro-5-cyanopyrazin-2-yl)-2-hydroxybenzamide] | < 4.30 |  | 
17 | N#Cc1ccc(NC(=O)c2cc(Cl)ccc2OP(=O)(O)O)c(Cl)c1 [Compound 13, 4-Chloro-2-((2-chloro-4-cyanophenyl)carbamoyl)phenyl dihydrogen phosphate] | > 5.00 |  | Concentrations for AMPK activation [2]: *** (<=10 μM)
18 | O=C(Nc1ccc2ccncc2c1)c1cc(Cl)ccc1O [Compound 21, 5-Chloro-2-hydroxy-N-(isoquinolin-7-yl)benzamide] |  | 4.30 to 5.00 | 
19 | O=C(Nc1nc2ccc(C(F)(F)F)cc2s1)c1cc(Cl)ccc1O [Compound 31, 5-chloro-2-hydroxy-N-(6-(trifluoromethyl)benzo[d]thiazol-2-yl)benzamide] | > 5.00 |  | 
20 | O=C(Nc1nc2c(C(F)(F)F)cccc2s1)c1cc(Cl)ccc1O [Compound 29, 5-Chloro-2-hydroxy-N-(4-(trifluoromethyl)benzo[d]thiazol-2-yl)benzamide] | > 5.00 |  | 
21 | N#Cc1cnc(NC(=O)c2cc(Cl)ccc2OP(=O)(O)O)cn1 [Compound 19, 4-Chloro-2-((5-cyanopyrazin-2-yl)carbamoyl)phenyl dihydrogen phosphate] | > 5.00 |  | 
22 | N#Cc1ccc(NC(=O)c2cc(Cl)ccc2OP(=O)(O)O)c(Cl)c1 [Compound 14, Sodium 4-chloro-2-((2-chloro-4-cyanophenyl)carbamoyl)phenyl phosphate] |  |  | pIC50 [3]: ≥ 5.00
23 | O=C(Nc1cnc(C(F)(F)F)cn1)c1cc(Cl)ccc1O [Compound 35, 5-chloro-2-hydroxy-N-(5-(trifluoromethyl)pyrazin-2-yl)benzamide] |  | > 5.00 | 
24 | N#Cc1ccc2nc(NC(=O)c3cc(Cl)ccc3O)sc2c1 [Compound 36, 5-chloro-N-(6-cyanobenzo[d]thiazol-2-yl)-2-hydroxybenzamide] |  | > 5.00 | 
